Where no end group is shown, it is not given here.
Legend:
[1] = tested on: detergent resistant membrane fractions from human neuroblastomas, SH-SY5Y; assay: Dot blot binding to isolated DRM density-gradient fractions; conditions: fractions 1-12, 1 top (detergent insoluble)
neuroblastoma cells = assay: Live-cell uptake after glycosphingolipid depletion with Fumonisin B1; format: cell-based, human; conditions: 10 μM FB1
[2] = Lipid-protein overlay (fat blot); format: binding; conditions: Sphingostrips, relatively low amounts of lipids (100 nmole equivalents)
SH-SY5Y neuroblastoma = assay: Live-cell uptake under cholesterol depletion (MβCD); format: cell-based, human; conditions: only after 2 h of cholesterol depletion
[3] = tested on: liposomes of raft-like composition (SM:Ch:POPC) with or without GM1, GD1a, GCB; POPC liposomes; assay: Liposome binding, fluorescence retained after centrifugal filtration; conditions: control
[4] = Lipid-protein overlay (fat blot); format: binding
[5] = Lipid-protein overlay (fat blot); format: binding; remark: listed apart in the source
[6] = Lipid-protein overlay (fat blot); format: binding; remark: listed apart in the source
[7] = Lipid-protein overlay (fat blot); format: binding, bovine
[8] = tested on: Drosophila c6 neuronal cells; assay: Labelling of Drosophila c6 neuronal cells with SBD, SBD* and SBD^scr peptides; format: cell-based
Drosophila c6 cells = assay: Cholesterol depletion measured with Amplex Red Cholesterol Assay kit; format: cell-based; conditions: for reduction of cholesterol: 10 mM, 30 min, whole cell lysates
Method: Cholesterol depletion and overload: Cells were incubated in 4 mM or 10 mM Methyl-β-cyclo-dextrin (MβCD) (Sigma, USA) for 30 min in serum-free medium, and washed. AMPLEX RED™ Cholesterol Assay kit (Invitrogen) was used to measure cholesterol concentrations in cell extracts before OPTIPREP™ gradient formation and later on DRM fractions generated. For cholesterol excess, 10 mM MβCD-cholesterol-complexes were prepared as described previously and incubated with cells at 25° C. for 30 min before labelling. After treatment cells were further incubated in complete medium with FBS.
Drug treatments: For cholesterol depletion cells were incubated in 10 mM Methyl-b-cyclo-dextrin (MbCD) (Sigma, USA) for 30 min in serum-free medium, and washed. AMPLEX RED™ Cholesterol Assay kit (Invitrogen) was used to measure cholesterol concentrations in cell extracts before OPTIPREP™ gradient formation and later on DRM fractions generated.
Treatments that inhibit cholesterol synthesis or that remove cholesterol from membranes are known to disrupt lipid rafts. Methyl-β-cyclo-dextrin (MβCD) was used to deplete Drosophila c6 (FIG. 13) and neuroblastoma cells (data not shown) of cholesterol and related sterols (see Methods), and looked at the effect on SBD binding. First, the effectiveness of the MβCD treatment was tested by measuring total cholesterol levels using the AMPLEX RED™ kit (Invitrogen). On c6 cells, cholesterol was reduced by 42% after 30 min, and the distribution of the remaining cholesterol became more uniform across the density gradient (FIG. 13C).

[9] = peptide at higher concentrations (20 μM)
[10] = peptide at higher concentrations (20 μM), listed as mutated peptide
[11] = spotted strips, 1000-2000 nmole equivalents lipid
[12] = spotted strips, 1000-2000 nmole equivalents lipid, listed as scrambled version of the peptide

In the case of CtxB [reference compound], the “binding to density-gradient fractions (dot blot)” value [1] is reported as “typical two-peak distribution”, the “uptake after Fumonisin B1 (FB1) treatment” value (“uptake after Fumonisin B1” below) (neuroblastoma cells) is reported as “not affected” and the “interaction with GM1” value [2] is reported as “recognize”.

With CtxB-Alexa594 the “uptake under cholesterol depletion” value (SH-SY5Y neuroblastoma) was “reduced rate of uptake” and the “retention on GM1 liposomes compared with GD1a or no glycolipid” value [3] was “retained more strongly”.

In the case of DAEFAHDSGAEVHHQELVFFAEDVG [SBD**-myc], the “interaction with GD1b” value ([4]; peptide at low concentrations) is reported as “very weakly”, the “interaction with GD1a” value ([5]; peptide at 5 μM) is reported as “fails to show any interaction” and the “interaction with GD1a” value [5, 9] is reported as “only weakly interacts”. For the same molecule, the “interaction with GD1a” value [5, 10] was “bound very weakly”, the “interaction with SM” value ([6]; peptide at 5 μM) was “fails to show any interaction” and the “interaction with SM” value [6, 9] was “fails to show any interaction”. The “interaction with SM” value [6, 10] was “not” and the interaction with galactocerebrosides ([7]; peptide at low concentrations) was “interacted”.

With “FYHDESEFGHAVEQFGRDVEAVHDL (not fully specified; also: fluorophore, identity and site not given here) [SBD^scr]” the “internalized punctae (number and intensity)” value ([8]; Oregon Green conjugates, 10 μM each) was “much reduced” and the “concentration needed for binding to cells” value ([8]; c6 cells (FIG. 1B)) was no less than 50 µM.

With FYHDESEFGHAVEQFGRDVEAVHDL [SBD-scr-myc] the “interaction with GD1b” value [4, 11] was “bind”, the “interaction with GD1b” value [4, 12] was “interacted approximately as well” and the “interaction with GD1a” value [5, 11] was “bind”. For the same molecule, the “interaction with GD1a” value [5, 12] was “interacted approximately as well”, the interaction with sphingomyelin [6, 11] was “interacted approximately as well” and the interaction with galactocerebrosides [7, 11] was “bind”. For the same molecule, the “interaction with GM1” value ([2]; listed as SBD scr-myc) was “interact” and the “interaction with GM1” value ([2]; listed as SBD-scr) was “showed signal”.

In the case of Methyl-β-cyclo-dextrin [MβCD], the reduction of cholesterol (Drosophila c6 cells) is reported as 42%, the reduction of cholesterol (Drosophila c6 cells; listed as M[…]CD) is reported as “over 40%” and the “depletion of total cholesterol” value (Drosophila c6 cells; Example 1) is reported as 40%.

In the case of “Transferrin-Alexa594: marker of clathrin-mediated uptake”, the “uptake after Fumonisin B1” value (neuroblastoma cells) is reported as “not significantly altered” and the “uptake after Fumonisin B1” value (neuroblastoma cells; listed as Tfr) is reported as “essentially unaltered”.

B1: Lysenin: sphingomyelin-binding protein toxin from earthworm (protein, UniProt O18423 1-297, looked up)
Lysenin: MSAKAAEGYEQIEVDVVAVWKEGYVYENRGSTSVDQKITITKGMKNVNSETRTVTATHSIGSTISTGDAFEIGSVEVSYSHSHEESQVSMTETEVYESKVIEHTITIPPTSKFTRWQLNADVGGADIEYMYLIDEVTPIGGTQSIPQVITSRAKIIVGRQIILGKTEIRIKHAERKEYMTVVSRKSWPAATLGHSKLFKFVLYEDWGGFRIKTLNTMYSGYEYAYSSDQGGIYFDQGTDNPKQRWAINKSLPLRHGDVVTFMNKYFTRSGLCYDDGPATNVYCLDKREDKWILEVVG
For B1, the “binding to density-gradient fractions (dot blot)” value [1] was “bound to non-DRM fractions” and the “interaction with Sphingomyelin (spot 5)” value ([6]; Sphingostrips) was “recognize”.

From patent US9499601B2, “Molecular probe for sphingolipids” (Agency for Science, Technology and Research, priority 2006, dated 2016)
